Measurements as given in patent US20230173071A1, “TREATMENT OF MYOPIA AND OTHER OCULAR CONDITIONS USING SINGLET OXYGEN GENERATED FROM DYES ACTIVATED BY NEAR-INFRARED LIGHT” (California Institute of Technology, priority 2018, published 2023).
Entries after “also recorded” stand apart in the source; their conditions may differ. Blank lines part the entries; values can stand above or below the compound they belong to.

Experiments:
[1] = Singlet oxygen generation by DPBF decay (UV-Vis), 810 nm LED; format: physicochemical
Source text: To evaluate the efficiency of singlet oxygen generation by ICG and an analog (IR-820) in vitro, the singlet oxygen generation was monitored. 1,3-diphenylisobenzofuran (DPBF), a compound that decays in the presence of singlet oxygen, and singlet oxygen sensor green (SOSG), a dye that increases fluorescence in the presence of singlet oxygen, were used as markers to indicate singlet oxygen generation by ICG and IR-820. […] For SOSG analysis, the fluorescence turn-on in H2O and D2O was compared to that observed when riboflavin—an FDA approved dye used in conjunction with UV light to treat keratoconus (corneal expansion)—was usedIn all cases, an increase in fluorescence emission at 525 nm was observed (using a 488nm excitation).

[2] = Dye solubility observations; format: physicochemical; conditions: counterion exchanged from BF4- to BarF-
Method: ICG is a NIR-absorbing heptamethine dye that has the potential of generating singlet oxygen upon irradiation and has a λmax ranging from 780-810 nm depending on the context. […] BAC along with other cationic surfactants (alkyl ammonium salts, polyoxyethylene alkyl amines, amide linked alkyl amines, alkyl imidazolines, etc.) aid in the solubility of the dye in aqueous media. […] The standard formulation used in these studies consisted of 0.05 to 5.0 mg/mL ICG and 0.01% to 0.001% BAC in solution. D2O was selected as the solvent to increase the lifetime of singlet oxygen and therefore the crosslinking capability of the species. […] Fluorinated solvents (perfluorohexane, perfluorotripentylamine, etc.) are also of interest due to their ability to dissolve more oxygen and their robust inertness.

[3] = Irradiation of IR-1061 dyes with DPBF, 980 nm or 1064 nm laser; format: physicochemical; conditions: for DPBF signal relative to a dark control: 30 minutes of irradiation, 1 W cm^-2 980 nm laser
Method: Initial work was done using a set of IR-1061 derivatives: cited herein as IR-1061-pyridine and IR-1061-pyridinium.
Like IR-1061-pyridinium, IR-1061-acridinium was irradiated in CDCl3 in the presence of DPBF using a 1 W cm^−2 980 nm laser (FIG. 15(A)). As a comparison, a similar irradiation was carried out using a 1.8 W cm^−2 1064 nm laser (FIG. 16). The collective effect of irradiation wavelength and conditions are seen in FIGS. 15(A-C), and FIGS. 16-18.

[4] = as above; format: physicochemical
[5] = Dye stability observations
Method: Unfortunately, IR-1061-pyridinium was unatable in the presence of water. In an attempt to overcome the susceptibility of IR-1061-pyridinium to hydration, the pyridine charge-transfer partner was exchanged for acridine, which was expected to shield the dye from water addition due to its additional bulk.
To confirm that the process was singlet oxygen-mediated, irradiation of a freeze-pump-thawed sample—devoid of oxygen—was carried out. […] To evaluate the scope of the reaction, the dye was irradiated in an array of deuterated solvents.

porcine sclera = conditions: treated with UV light and riboflavin; previous work; cited from earlier work
[6] = Singlet oxygen sensor green (SOSG) fluorescence measurements; format: physicochemical; conditions: dye 0.1 mg/mL; 3 mW at 365 nm; 488 nm excitation
Method: Singlet oxygen sensor green (SOSG) is a common reagent for measuring singlet oxygen generation in aqueous systems. The marker becomes more fluorescent as singlet oxygen is generated. All time measurements were done in triplicate (100 μL aliquots from an irradiated sample). A Molecular Devices Flexstation was used to read out the fluorescence measurements with the excitation/emission at 488/525 nm.
SOSG fluorescence turn on was initially measured using riboflavin as a point of comparison for the efficacy of ICG irradiations. Measurements used a dye concentration of 0.1 mg/mL and the irradiation the parameters (3 mW at 365 nm) used in the FDA approved procedure for keratoconus (corneal expansion). The mixture was stirred during irradiation.
Stocks of the ICG formulations (both H2O and D2O) were made to be 1 mg/mL ICG and 0.01% benzalkonium chloride (BAC). These were diluted to a dye concentration of 0.1 mg/mL for the SOSG tests with no adjustments for the BAC. The sample was irradiated with 810 nm light at 200 mW and stirred throughout the irradiation.

[7] = deuterated polar aprotic solvents, such as DMSO
[8] = water (D2O with 7.5% DMSO-D6), 980 nm

Structure (SMILES): CC1(C)C(=CC=C2CCCC(C=CC3=[N+](CCCCS(=O)(=O)[O-])c4ccc5ccccc5c4C3(C)C)=C2Cl)N(CCCCS(=O)(=O)[O-])c2ccc3ccccc3c21.[Na+] [IR-820]
DPBF decay / singlet oxygen generation in D2O compared to H2O ([1]; 810 nm LED): increase; also recorded: faster decay rate
DPBF signal decay when irradiated ([1]; D2O, 810 nm LED): marked increase in the signal decay
DPBF signal decay when irradiated ([1]; H2O, 810 nm LED): marked increase in the signal decay
singlet oxygen generation (DPBF analysis) ([1]; in H2O or D2O): singlet oxygen generation was observed

solubility [2]: increase
Structure (SMILES): C(/C=C1\CCCC(/C=C/c2cc(-c3ccccc3)[s+]c(-c3ccccc3)c2)=C1[n+]1c2ccccc2cc2ccccc21)=C1C=C(c2ccccc2)SC(c2ccccc2)=C1 [IR-1061-Acridinium BArF]
photosensitization capability ([3]; counterion exchanged from BF4- to BarF-): marked decrease

DPBF degradation [4, 7]: decreased
photobleaching of the dye [4, 7]: photobleaching
DPBF degradation rates [4, 8]: comparable to those seen in chloroform
photobleaching of the dye [4, 8]: high levels
Structure (SMILES): C(/C=C1\CCCC(/C=C/c2cc(-c3ccccc3)[s+]c(-c3ccccc3)c2)=C1[n+]1c2ccccc2cc2ccccc21)=C1C=C(c2ccccc2)SC(c2ccccc2)=C1 [IR-1061-acridinium]
singlet oxygen generation ([4]; deuterated nonpolar solvents, such as toluene): no singlet oxygen generation was observed
dye and DPBF signal during irradiation ([3]; 1064 nm in CDCl3): Rapid bleaching of both the dye and DPBF signal
DPBF signal ([3]; freeze-pump-thawed CDCl3 (devoid of oxygen), 980 nm): no change
stability to strong acids and bases ([5]; prior to irradiation): dye instability and bleaching prior to irradiation

Structure (SMILES): C(/C=C1\CCCC(/C=C/c2cc(-c3ccccc3)[s+]c(-c3ccccc3)c2)=C1[n+]1ccccc1)=C1C=C(c2ccccc2)SC(c2ccccc2)=C1 [IR-1061-pyridinium]
DPBF signal relative to a dark control [3]: significant decrease
stability in the presence of water [5]: unatable

Structure (SMILES): ClC1=C(/C=C/c2cc(-c3ccccc3)[s+]c(-c3ccccc3)c2)CCC/C1=C\C=C1C=C(c2ccccc2)SC(c2ccccc2)=C1 [IR-1061]
DPBF signal relative to a dark control [3]: no significant changes

Structure (SMILES): Cc1cc2nc3c(=O)[nH]c(=O)nc-3n(C[C@H](O)[C@H](O)[C@H](O)CO)c2cc1C [riboflavin]
change in Young's Modulus of pig sclera (porcine sclera): minimal change
SOSG fluorescence emission at 525 nm [6]: increase
